Reference: the COVID Moonshot data (paper PMC11187573), “Identification of SARS-CoV-2 Mpro inhibitors through deep reinforcement learning for de novo drug design and computational chemistry approaches” (RSC Medicinal Chemistry, 2024)
pIC50: −log10 of the molar value.

Assays:
[1] = molecular target: SARS-CoV-2 Main Protease (SARS-CoV-2) (UniProt P0DTD1)
Experimental: Compounds were seeded into assay-ready plates (Greiner 384 low volume, cat 784900) using an Echo 555 acoustic dispenser, and DMSO was back-filled for a uniform concentration in assay plates (DMSO concentration maximum 1%) Screening assays were performed in duplicate at 20µM and 50µM. […] Dose response assays were performed in 12 point dilutions of 2-fold, typically beginning at 100µM. […] Reagents for Mpro assay were dispensed into the assay plate in 10µl volumes for a final volume of 20µL.
Mpro was pre-incubated for 15 minutes at room temperature with compound before addition of substrate and a further 30 minute incubation. Protease reaction was measured in a BMG Pherastar FS with a 480/520 ex/em filter set. Raw data was mapped and normalized to high (Protease with DMSO) and low (No Protease) controls using Genedata Screener software.

[2] = molecular target: SARS-CoV-2 Main Protease (SARS-CoV-2) (UniProt P0DTD1); remark: listed apart in the source

Structure (SMILES)	inhibition ([1]; 20.0 µM) [%]	inhibition ([1]; 50.0 µM) [%]	pIC50 [2]	inhibition ([2]; 50.0 µM) [%]	pIC50 [1]	inhibition ([2]; 20.0 µM) [%]
c1ccc(-c2cc(Sc3nnc(-c4cccs4)o3)n3ncnc3n2)cc1	47.1	96.7	6.82			
N#Cc1cnn(C(=O)c2cccs2)c1C1CC1	33.2	69	6.44			
C=CC(=O)N1CCN(Cc2ccc(F)cc2)CC1	7.92	11.4		0		
CC(C)(C)c1ccc(-c2nnc(Sc3cnc([N+](=O)[O-])s3)o2)cc1	8.3	69.9	6.78		5.38	
O=C1Nc2cc(N3CCCC3)ccc2C1=O	7.46	37.3		0		
CC(C)Cn1cc(NC(=O)NC2=NN(c3ccccc3)CC2)c2ccccc2c1=O	1.37	5.45		-5.97		
COc1ccc(Cl)cc1N1CCN(Cc2cc(=O)[nH]c3ccccc23)C1=O	-1.82	4.69		0		
COc1ccccc1OCCNC(=O)c1cc(=O)[nH]c2cccc(C)c12	91.8	96.4	5.58	89.7		
COc1cc(OC)cc(Oc2cccc(CNC(=O)Cn3nnc4ccccc43)c2)c1	-3.39	0.116		0		
CNCCN(C)C(=O)C(=O)N1Cc2ccccc2C(c2ccccc2)C1 (stereo not drawn)	-1.83	-2.83		0		
N#C/C(C(=O)Nc1ccc(F)cc1)=C(/O)c1ccc(Cl)cc1		22.2	6.63	100		
Cc1cc(S(=O)(=O)c2c([N+](=O)[O-])cc(C(F)(F)F)cc2[N+](=O)[O-])c(Cl)cc1Cl		9.61		34.8		
CN(CCC(N)=O)C(=O)C(=O)N1Cc2ccccc2C(c2ccccc2)C1 (stereo not drawn)	-0.756	-0.803		0		
CCOC(=O)c1ccc(NC(=O)CC2SC(=O)N(c3ccccc3)C2=O)cc1 (stereo not drawn)	79	80.7	6.20			
Cc1nc[nH]c1CN1CCN(Cc2cccc(Cl)c2)C1=O	-0.267	2.39		0		
Cc1ncccc1NC(=O)Cc1cccc(Cl)c1	-4.59	-3.9		0		
CC(C)C[C@H](NC(=O)OCc1ccccc1)C(=O)N[C@H](C(=O)NCC(=O)C=[N+]=[N-])C(C)C (stereo in doubt)		11.5		15.3		
O=c1oc(Nc2ccccc2)nc2ccccc12	68.6	90.4	6.44			
CC(C)n1cnnc1CNC(=O)C1CCOc2ccccc21 (stereo not drawn)	-4.11	-1.11		0		
Cc1ccc(OCCN2C(=O)C(=O)c3cccc(Cl)c32)cc1	0.316	5.65	5.67	77		
O=S(=O)(Cc1nc(-c2ccncc2)no1)Nc1ccc(N2CCCCC2)cc1	3.34	2.66		0		
O=C(Nc1ccc([N+](=O)[O-])cc1)c1cc(Cl)ccc1O	-7.24	-15.6		6		2.8
COc1ccc2c(c1F)NC(=O)C2=O	-1.15	3.02		7.79		
O=C(Cc1cc(Cl)cc2c1OCC2)Nc1cncc2ccccc12			6.31	78.3	5.84	
N#Cc1cncc(NC(=O)Cc2c[nH]c3ncccc23)c1	-0.384	0.0775		0		

Structure (SMILES)	inhibition ([1]; 20.0 µM) [%]	inhibition ([1]; 50.0 µM) [%]	pIC50 [2]	inhibition ([2]; 50.0 µM) [%]	pIC50 [1]	inhibition ([2]; 20.0 µM) [%]
Cc1ccccc1NC(=O)CC1SC(=O)N(c2ccccc2)C1=O (stereo not drawn)	92.6	94.9	6.18			
COc1ccccc1OCCNC(=O)c1cc(=O)[nH]c2cccc(F)c12	8.74	12.5	5.74			
N#CCCCOC(=O)c1cccc2c1NC(=O)C2=O	-3.65	-1.22		0		
COc1ccccc1OCCN1C(=O)C(=O)c2cc(Br)cc(C)c21	-2.64	-0.707		48.1		
Cc1cc(C)c(C#N)c(Sc2ncnc3c2nnn3Cc2ccccc2)n1	79	97.7	6.59			
O=C(CCl)N1CCN(Cc2cc(O)cc(Cl)c2)CC1	75	89.5	5.80	98.9		92.7
O=S(=O)(Cc1ccccc1F)c1oc(-c2ccc(F)cc2)nc1S(=O)(=O)c1ccccc1	49	95.9	7.00			
CCN(Cc1cccc(-c2ccncc2)c1)C(=O)Cn1nnc2ccccc21	3.37	15.6		0		
Cn1cc(NC(=O)Nc2ccccn2)c2ccccc2c1=O	-2.17	-0.727		0		
C=CC(=O)N(c1ccc(C(C)(C)C)cc1)C(C(=O)NCCc1cccc(F)c1)c1cncc(O)c1 (stereo not drawn)	16.1	23.5	4.58			
Cc1cccc(C)c1NC(=O)CN1C(=O)C(=O)c2ccccc21	-5.56	-2.09		0		
COc1cc(OC)cc(Oc2ccc(CNC(=O)Cn3nnc4ccccc43)cc2)c1	4.58	17.3		0		
O=[N+]([O-])c1cnc(Sc2nnc(-c3ccc(Cl)cc3)o2)s1	28.9	71.2	6.50			
CC(C)(C)NC(=O)CN1C(=O)C(=O)c2cccc(Br)c21	-2.41	1.28		0		
Cc1ccc2nc(-c3ccc(N)cc3)sc2c1S(=O)(=O)O		21.2		0		
COC(=O)c1ccc(-c2cc(Cl)cc(CC(=O)Nc3cnccc3C)c2)c(OC)c1			4.92		4.90	
CN1CCN(C(=O)CNc2c(S(N)(=O)=O)ccc3ccccc23)CC1	-0.961	0.321		0		
COC(=O)c1c(C)nn(C(=O)c2cccs2)c1-c1snnc1C	35	77	6.28			
Cc1nnc(NC(=O)C2COc3ccc(Cl)cc32)n1C1CC1 (stereo not drawn)	-63.2	-2.41		0		
CC(C(=O)Nc1cnccc1O)c1ccccc1 (stereo not drawn)	0.187	0.74		0		
Nc1cncc2c1CCCN2C(=O)Cc1cccc(Cl)c1			4.27		4.49	
COC(=O)c1c(NCCCc2ccccc2)c2cc(F)ccc2[nH]c1=O	20.5	7.56	4.16			
CCc1cccc(CC)c1NC(=O)CN1C(=O)C(=O)c2cc(OC)ccc21	-6.58	-0.841		13		
CCC(=O)Nc1ccc(N(Cc2ccsc2)C(=O)Cn2nnc3ccccc32)cc1	79.7	89.3		78.1		
Cc1ccncc1NC(=O)C[C@H](c1ccccc1)N1CCC(O)CC1 (stereo in doubt)	6.5	34.5	4.17			

Structure (SMILES)	inhibition ([1]; 20.0 µM) [%]	inhibition ([1]; 50.0 µM) [%]	pIC50 [2]	inhibition ([2]; 50.0 µM) [%]	pIC50 [1]	inhibition ([2]; 20.0 µM) [%]
CNC(=O)c1ccc(CS(=O)(=O)NCC(F)(F)c2ccc(F)cc2F)cc1	6.87	9.79		0		
CN1CCN(C(=O)Cc2c[nH]c3ncc(C(=O)NCCc4c[nH]c5ccc(F)cc45)cc23)CC1	-1.5	7.57		8.74		
O=C(Nc1cccnc1)Nc1cc(O)cc(Cl)c1	4.43	21.2		19.4		
O=C1CC(Oc2cc(Cl)cc(N(CCC3CCCCC3)C(=O)Nc3cncc4ccccc34)c2)N1 (stereo not drawn)			5.80		6.98	
CC(C)Cn1cc(NC(=O)NCCc2ccc(Cl)cc2)c2ccccc2c1=O	22.5	-1.58	4.02			
COc1ccc(-n2cc(CN3CCN(C(=O)CCl)CC3)nn2)cc1	10.9	24.9		24.1		
C/C(O)=C(\C#N)C(=O)Nc1ccc(C(F)(F)F)cc1	-2.89	-3		22.2		
C#Cc1ncccc1NC(=O)Cc1cccc(Cl)c1	-2.01	3.62		7.93		
COc1ccccc1OC1CCCN(C(=O)c2c(C)c(=O)[nH]c3ccccc23)C1 (stereo not drawn)	-2.54	-1.13		0		
O=C(Nc1nncn1C1CC1)C1CCS(=O)(=O)c2ccccc21 (stereo not drawn)	37.6	74.6	4.57			
Cc1ccc(S(=O)(=O)N2CCC(NC(=O)N(C)Cc3cc(C)on3)CC2)cc1	-1.1	2.6		0		
O=C(Nc1ccc([N+](=O)[O-])cc1Cl)c1cc(Cl)ccc1O		-22.8		21		
Cc1ccc(CN2CCC(CNC(=O)Nc3cn(CC(C)C)c(=O)c4ccccc34)C2)cc1 (stereo not drawn)	-3.01	0.927	4.03			
CS(=O)(=O)N1CCc2ccc(CN3CCN(C(=O)CCl)CC3)cc2C1	29.9	62.5	4.42	71.8		
CC(NC(=O)CCl)c1cc(F)cc(Cl)c1 (stereo not drawn)	40.6	74.5	4.68	100		
C=CC(=O)N(c1ccc(C(F)(F)F)cc1)C(C(=O)Nc1ccc(OC)cc1)c1cccnc1 (stereo not drawn)	40.3	60.7				60
C=CC(=O)N(c1ccc2c(c1)C=CCCC2)C(C(=O)NC(C)(C)C)c1cccnc1 (stereo not drawn)	12.4	25.9		0		
O=C(Cc1cccc(Cl)c1)Nc1cccnc1	24.1	40.9		52.4		
CCCCN(CCCNC(=O)Nc1cn(CC(C)C)c(=O)c2ccccc12)c1ccccc1	-4.26	-3.25	4.08			
COc1ccc(CN2C(=O)C(=O)c3cc(Br)cc(C)c32)cc1OC	-2.84	0.559	5.91	99.3		
Cc1cccc(COC(=O)c2cccc3c2NC(=O)C3=O)c1	-1.1	0.0384	4.76	83.7		
O=C(CCl)N1CCN(Cc2cnc(Cc3ccccc3)s2)CC1	41.5	51.6	4.46	97.6		
C=CC(=O)N1CC(NCc2c[nH]c3ccc(C#N)cc23)C1	-2.15	15.4		0		
